{"source": "patent US6500864B1", "about": "“Disulfide derivatives useful for treating allergic diseases” (Alcon Universal Ltd., priority 2000, dated 2002)", "system": "human conjunctival tissue mast cells", "test": "Inhibition of anti-human IgE induced histamine release from human conjunctival tissue mast cells (HCTMC), histamine by RIA", "assay_type": "cell-based", "conditions": "Mast cell, bracketed value, equals the mean of the four single determinations in the same cell, read-out: IC50 (nM), value in square brackets", "description": "Methods detailing preparation of monodispersed HCTMC and mediator release studies with these cells have been described (U.S. Pat. No. 5,360,720 and Miller et al, Ocular Immunology and Inflammation, 4(1):39-49 (1996)). Briefly, human conjunctival tissue mast cells were isolated from post-mortem tissue donors obtained within 8 hours of death by various eye banks and transported in Dexsol® corneal preservation medium, or equivalent. Tissues were enzymatically digested by repeated exposure (30 min. at 37° C.) to collagenase and hyaluronidase (2× with 200 U each/gram tissue, then 2-4× with 2000 U each/gram tissue) in Tyrode's buffer containing 0.1% gelatin. (Tyrode's buffer (in mM): 137 NaCl, 2.7 KCl, 0.35 NaH2PO4, 1.8 CaCl2, 0.98 MgCl2, 11.9 NaHCO3, and 5.5 glucose). […]\nCells were harvested from the culture plate and counted for viability (trypan blue exclusion) and mast cell number (toluidine blue O). […] Supernatants were stored at −20° C. until analyzed for histamine content by RIA (Beckman Coulter, Chicago, Ill.). […]\nInhibition of histamine release was determined by direct comparison of with anti-IgE challenged mast cells using Dunnett's t-test (Dunnett, “A multiple comparison procedure for comparing treatments with a control”, J. Amer. Stat. Assoc. (1955), 50:1096-1121)."}
{"compound": "C=CCNC(=O)Nc1ccccc1SSc1ccccc1NC(=O)NCC=C", "note": "[Compound 1]", "values": [{"measurement": "IC50", "result": 194, "unit": "nM"}]}
